# Assay: loss of righting test (muscle relaxant activity)
# Type: in vivo
smiles,measurement,setting,value
Nc1cccc(-c2ccccc2)c1CC(=O)O [Example 6-phenyl],Percent loss of Righting reflex,Dose 50 mg/kg,0%
same,Percent loss of Righting reflex,Dose 100 mg/kg,100%

# From patent EP0089426A1, “2-Amino-6-biphenylacetic acids” (A.H. ROBINS COMPANY, INCORPORATED, priority 1982, dated 1983)
